Literature values as cited in patent US20030134846A1, “Treatment of trypanosoma brucei with farnesyl protein transferase inhibitors” (Schering Corporation, priority 2001, published 2003).

Details: patients treated for second stage infection; can lead to death

## Nc1nc(N)nc(Nc2ccc([As]3SCC(CO)S3)cc2)n1 (stereo not shown) [melarsoprol]
  reactive encephalopathy, occurrence in patients: 5-10%
